Laboratory results published in patent US20220242812A1, “SWELL1-LRRC8 COMPLEX MODULATORS” (Washington University, priority 2019, published 2022).
Where two headings read alike, the source gives them in different places.

Assays:
[1] = tested on: HFD-induced T2D mice; assay: Metabolic phenotyping (fasting glucose, GTT, ITT) in HFD-fed T2D mice; type: in vivo
Description: (§1) All compounds were dissolved in Kolliphor® EL (Sigma, #C5135).
Mice were fasted for 6 h prior to glucose tolerance tests (GTT). Baseline glucose levels at 0 min timepoint (fasting glucose, FG) were measured from blood sample collected from tail snipping using glucometer (Bayer Healthcare LLC). Either 1 g or 0.75 g D-Glucose/kg body weight were injected (i.p.) for lean or HFD mice, respectively and glucose levels were measured at 7, 15, 30, 60, 90 and 120 min timepoints after injection. For insulin tolerance tests (ITTs), the mice were fasted for 4 h. […] All mice and treatment groups were assessed blindly while performing experiments.

[2] = tested on: polygenic T2D KKAy mice; assay: Metabolic phenotyping (fasting glucose, GTT, ITT) in polygenic T2D KKAy mice; type: in vivo; conditions: polygenic T2D KKAy model, 5 mg/kg i.p. 4 days
From the text: All C57BL/6 mice involved in study were purchased from Charles River Labs. Both KK.Cg-Ay/J (KKN) and KK.Cg-Aa/J (KKAa) mice involved in study were gender and age-matched mice obtained from Jackson Labs (Stock No: 002468) and bred up for experiments. The mice were fed ad libitum with either regular chow (RC) or high-fat diet (Research Diets, Inc., 60 kcal % fat) with free access to water and housed in a light-, temperature- and humidity-controlled room. For high-fat diet (HFD) studies, only male mice were used and were started on HFD regimen at the age of 6-9 weeks. For all experiments involving KKN and KKAa mice, both males and females were used at approximately 50/50 ratio. In all experiments involving mice, investigators were kept blinded both during the experiments and subsequent analysis.
as §1
Mice were fasted for 6 h prior to glucose tolerance tests (GTT). Baseline glucose levels at 0 min timepoint (fasting glucose, FG) were measured from blood sample collected from tail snipping using glucometer (Bayer Healthcare LLC). Either 1 g or 0.75 g D-Glucose/kg body weight were injected (i.p.) for lean or HFD mice, respectively and glucose levels were measured at 7, 15, 30, 60, 90 and 120 min timepoints after injection. For insulin tolerance tests (ITTs), the mice were fasted for 4 h. Similar to GTTs, the baseline blood glucose levels were measured at 0 min timepoint and 15, 30, 60, 90 and 120 min timepoints post-injection (i.p.) of insulin (HumulinR, 1 U/kg body weight for lean mice or 1.25 U/kg body weight for HFD mice). […] The collected plasma was then measured for insulin content by using Ultra-Sensitive Mouse Insulin ELISA Kit (Crystal Chem, #90080). All mice and treatment groups were assessed blindly while performing experiments.

[3] = Caco-2 permeability assay; type: in vitro ADME; conditions: human, Caco-2; for Papp at 2 h: apparent permeability, read-out: Caco-2 10^−6 cm/s
Description: (§2) In vitro ADMET studies were performed at Charles River Laboratory as outlined below. For the Caco-2 permeability assay, the cells were cultured (DMEM, 10% FBS, 1% L-Glutamax and 1% PenStrep) for 21 days. HBSS was used as the transport buffer and the TEER measurements were taken before the start of the assay. Compounds were added apical side to determine apical to basolateral transport (A-B) and basal side to determine basolateral to apical transport (B-A). Samples (10 μL) were collected at time 0 and 2 h and diluted (5×) with transport buffer. After the quenching reaction, the samples were further diluted in MilliQ water for bioanalysis. The TEER measurements were carried out at the end of the assay and wells with significant decrease in post-assay TEER values were not included in the data and repeated again. The analyte levels (peak area ratios) were measured on apical (A) and basolateral (B) sides at To and T2h-A-B and B-A fluxes were calculated averaging 3 individual measurements. Apparent permeability (Papp, cm/sec) was calculated as dQ (flux)/(dt*area*concentration). The efflux ratio was calculated by Papp(B-A)/[…]. For the microsomal metabolic stability assay, the microsomes were diluted in potassium phosphate buffer to maintain at a final concentration of 0.5 mg/ml in the assay procedure. The compounds were diluted 10-fold in acetonitrile and incubated with the microsomes at 37° C. with gentle shaking. Samples were collected at different timepoints and quenched. The samples were mixed by vortexing for 10 min and centrifuged at 3100 rpm for 10 min at 4° C. The supernatant was diluted in water and further analyzed in LC/MS autosampler. Half-life (T1/2) was calculated by the formula 0.692/slope where slope is ln(% remaining relative to Tzero vs time). Intrinsic clearance was calculated using the (CLn1)=T112*1/initial concentration*mg prep/g liver*g liver/kg body weight. For the cytochrome P450 inhibition assay, the cofactors and substrate were mixed in Potassium phosphate buffer. A stock concentration of 10 mM compounds (in DMSO) were diluted 5-fold in acetonitrile and mixed with cofactor/substrate mixture (2×). Human liver microsomes were diluted in Potassium phosphate buffer for a final concentration (2×) of 0.2 mg/ml and the reaction was initiated by mixing the microsomes with the compound/cofactor/substrate mixture at 37° C. with gentle shaking. Samples were collected at To and T30 min timepoints and quenched. The samples were then centrifuged at 3100 rpm for 5 min at 5-10° C. and the supernatant was diluted in water and further analyzed in LC/MS autosampler. % inhibition was calculated (using peak area ratios) relative to zero inhibition (full activity) and no activity (full inhibition).

[4] = tested on: Caco-2 cell monolayer; assay: Caco-2 permeability assay; type: in vitro ADME
Description: as §2

[5] = Microsomal metabolic stability assay; type: in vitro ADME; conditions: human liver microsomes; read-out: Human hepatic microsome stability Clintrinsic
Description: In vitro ADMET studies were performed at Charles River Laboratory as outlined below. For the Caco-2 permeability assay, the cells were cultured (DMEM, 10% FBS, 1% L-Glutamax and 1% PenStrep) for 21 days. HBSS was used as the transport buffer and the TEER measurements were taken before the start of the assay. Compounds were added apical side to determine apical to basolateral transport (A-B) and basal side to determine basolateral to apical transport (B-A). Samples (10 μL) were collected at time 0 and 2 h and diluted (5×) with transport buffer. After the quenching reaction, the samples were further diluted in MilliQ water for bioanalysis. […] The analyte levels (peak area ratios) were measured on apical (A) and basolateral (B) sides at To and T2h-A-B and B-A fluxes were calculated averaging 3 individual measurements. Apparent permeability (Papp, cm/sec) was calculated as dQ (flux)/(dt*area*concentration). The efflux ratio was calculated by Papp(B-A)/Papp(B-A). […] The supernatant was diluted in water and further analyzed in LC/MS autosampler. Half-life (T1/2) was calculated by the formula 0.692/slope where slope is ln(% remaining relative to Tzero vs time). Intrinsic clearance was calculated using the (CLn1)=T112*1/initial concentration*mg prep/g liver*g liver/kg body weight. […]

[6] = target: T1, CYP 2C9 (Homo sapiens, UniProt P11712); assay: Cytochrome P450 inhibition assay, CYP 2C9; type: in vitro ADME; conditions: human liver microsomes
T1 construct: Human liver microsomes were diluted in Potassium phosphate buffer; tissue Charles River Laboratory (performed the study); host or cells: human liver microsomes

[7] = target: T2, CYP 3A4 (Homo sapiens, UniProt P08684); assay: Cytochrome P450 inhibition assay, CYP 3A4; type: in vitro ADME; conditions: human liver microsomes
T2 construct: Human liver microsomes were diluted in Potassium phosphate buffer; tissue Charles River Laboratory (performed the study); host or cells: human liver microsomes

[8] = tested on: insulin-AKT2-AS160 signaling (pAKT2, pAS160); assay: Insulin-stimulated AKT2-AS160 signaling western blot in 3T3-F442A cells
[9] = target: SWELL1 protein (Mus musculus, UniProt Q80WG5); assay: Glucolipotoxic stress (palmitate + glucose) SWELL1 protein in 3T3-F442A adipocytes; conditions: 10 μM 96 h, 1 mM palmitate + 25 mM glucose
[10] = HFD-induced T2D mice, 5 mg/kg i.p. 4-10 days
[11] = after 16 weeks of HFD feeding, vs vehicle
[12] = HFD 12-18 weeks, 5 mg/kg/day x 4 days, pre- vs post-treatment

For `CCCCC1(C2CCCC2)Cc2cc(OCCCC(=O)O)c(Cl)c(Cl)c2C1=O` (stereo not shown) [SN-401, 4-((2-butyl-6,7-dichloro-2-cyclopentyl-1-oxo-2,3-dihydro-1H-inden-5-yl)oxy)butanoic acid], the Glucose tolerance ([1]; HFD-T2D mice, daily i.p. for 8 weeks (FIG. 31D)) was “striking effects”, the “Fasting blood glucose (FG)” value [1, 10] was “normalized” and the “Glucose tolerance (GTT)” value [1, 10] was “normalized”. For the same compound, the “Insulin-tolerance (ITT)” value [1, 10] was “markedly improved”, the ITT ([1]; after 16 weeks of HFD feeding (ITT at 18 weeks), vs vehicle) was “marked improvements” and the FG [1, 11] was “marked improvements”. For the same compound, the GTT [1, 11] was “marked improvements”, the “Fasting blood glucose (FG)” value [2] was “normalized” and the “Glucose tolerance (GTT)” value [2] was “normalized”. The “Insulin-tolerance (ITT)” value [2] was “markedly improved”, the Papp at 2 h [3] was 8.24 ×10⁻⁶ cm/s and the Caco-2 permeability ranking [4] was “Higher”. The Caco-2 efflux ranking ([4]; Caco-2) was “Not”, the “Caco-2 cell monolayer permeability” value ([4]; in words) was “good” and the CLint scaled [5] was 72.7 mL/min/kg. For the same compound, the IC50 [6] was < 10 µM, the IC50 [7] was > 10 µM and the Insulin-pAKT2 signaling ([8]; 3T3-F442A adipocytes, 1 μM 96 hours followed by washout, vs vehicle) was “robustly increases”. For the same compound, the “Effects on insulin-AKT2-AS160 signaling in SWELL1 KO cells” value ([8]; SWELL1 KO 3T3-F442A adipocytes) was “absent”, the “Insulin-stimulated levels of pAS160” value ([8]; WT 3T3-F442A adipocytes, 10 μM 96 h) was “enhanced” and the “Insulin-stimulated levels of pAKT2” value ([8]; WT 3T3-F442A, 10 μM 96 h) was “enhanced”. For the same compound, the “Prevention of palmitate/glucose-induced SWELL1 protein reduction” value [9] was “entirely prevented”.

For `CCCCC1(C2CCCC2)Cc2cc(OCCCCCC(=O)O)c(Cl)c(Cl)c2C1=O` (stereo not shown) [SN-406, 6-((2-butyl-6,7-dichloro-2-cyclopentyl-1-oxo-2,3-dihydro-1H-inden-5-yl)oxy)hexanoic acid], the Fasting blood glucose [1, 12] was “markedly reduced”, the Glucose tolerance [1, 12] was “improved” and the “Insulin sensitivity based on HOMA-IR” value ([1]; HFD T2D mice, compared to SN071) was “trend toward improved”. The Glucose tolerance ([1]; HFD T2D mice, separate experiment, compared to SN071) was “significantly improved”, the Papp at 2 h [3] was 1.93 ×10⁻⁶ cm/s and the efflux ratio at 2 h ([3]; read-out: Caco-2 efflux ratio B-A/A-B) was 1.58. For the same compound, the Caco-2 efflux ranking [4] was “Not”, the Caco-2 permeability ranking [4] was “Higher” and the CLint scaled [5] was 46.4 mL/min/kg. For the same compound, the IC50 [6] was > 10 µM, the IC50 [7] was > 10 µM and the “Prevention of palmitate/glucose-induced SWELL1 protein reduction” value [9] was “entirely prevented”.
